{
  "source": "patent US20180371404A1",
  "about": "“METABOLIC ENGINEERING OF MEMBRANE PROTEINS TO IMPROVE ESCHERICHIA COLI MEMBRANE INTEGRITY AND PRODUCTION OF FATTY ACIDS” (priority 2017, published 2018)",
  "key": {"E. coli Frag1": {"tested_on": "E. coli Frag1", "conditions": "8 mM acetate; cited from earlier work"}, "BW25113 [1]": {"tested_on": "BW25113", "conditions": "phenol at 50-75% of the MIC in LB at 37° C.; cited from earlier work"}, "BW25113 [2]": {"tested_on": "BW25113", "conditions": "10 vol % hexane in LB at 37° C.; cited from earlier work"}, "E. coli MG1655 [3]": {"tested_on": "E. coli MG1655", "conditions": "40 mM; cited from earlier work"}, "E. coli KO11": {"tested_on": "E. coli KO11", "conditions": "cited from earlier work"}, "E. coli LY01": {"tested_on": "E. coli LY01", "conditions": "cited from earlier work"}, "E. coli MG1655 [4]": {"tested_on": "E. coli MG1655", "assay": "Octanoic acid tolerance characterization (specific growth rate)", "type": "cell-based", "procedure": "2.2 Strain Tolerance Characterization: Octanoic acid tolerance was characterized in 50 ml MOPS defined minimal medium with 2.0% (wt/v) dextrose and 10 mM octanoic acid (1.44 g/L) in 250 ml baffled flasks at 220 rpm and initial pH at 7.0, 30° C. MOPS media contains the following: 8.37 g/L 3-(N-morpholino)propanesulfonic acid (MOPS), 0.72 g/L tricine, 2.92 g/L NaCl, 0.51 g/L NH4Cl, 1.6 g/L KOH, 50 mg/L MgCl2, 48 mg/L K2SO4, 348 mg/L K2HPO4, 0.215 mg/L Na2SeO3, 0.303 mg/L Na2MoO4.2H2O, 0.17 mg/L ZnCl2, 2.5 μg/L FeCl2.4H2O, 0.092 μg/L CaCl2.2H2O, 0.031 μg/L H3BO3, 0.020 μg/L MnCl2.4H2O, 0.0090 μg/L CoCl2.4H2O, and 0.0020 μg/L CuCl2.4H2O [43, 44]. Specific growth rate μ (h-1) was calculated by fitting the equation OD=OD0e^μt over the duration of the exponential growth phase. […] Dry cell weight (DCW) was calculated from the optical density at 550 nm (1 OD550=0.333 g DCW/L)."}, "E. coli BW25113": {"tested_on": "E. coli BW25113", "conditions": "up to 20 mM C8, pH 7.0, 37° C.; cited from earlier work"}, "E. coli MG1655 [5]": {"tested_on": "E. coli MG1655", "assay": "Membrane integrity (SYTOX Green, flow cytometry) during C8 challenge", "type": "cell-based", "procedure": "Membrane Integrity Characterization: Cells were centrifuged, washed twice, and then resuspended in PBS buffer (pH 7.0) at a final OD550 of ˜1. One hundred microliter (100 μl) of this suspension was mixed with 900 μl of PBS buffer and SYTOX Green (Invitrogen) was added to a final concentration of 5.0 μM. After resting at room temperature for 15 minutes, cells were analyzed by a BD Biosciences FACSCanto II flow cytometer equipped with standard factory-installed 488 nm excitation laser, signal collection optics, and fluorescence emission filter configuration. Instrument sheath fluid was filtered (0.22 μm) PBS buffer. Green fluorescence from stained cells was collected in the FL1 channel (525/50 nm). Forward scatter (FSC), side scatter (SSC), and FL1 (Green) parameters were collected as logarithmic signals. All data collections were performed at low flow rate setting (˜12 μl/min) and cell concentrations were such that the event rate was below 5,000 events/s. All samples were analyzed immediately after staining. Background noise and small debris was eliminated from data collection via a side scatter signal threshold that was established by examining samples containing only SYTOX Green staining buffer. Bacteria in SYTOX Green-stained samples were readily identified on the basis of FSC and SSC signals and an appropriate “Cell” gate was drawn to limit FL1 analysis to bacteria and exclude non-cell events. A minimum of 20,000 cell-gated events were collected for each sample. Green fluorescence data for these “cell” events were plotted as histograms showing the signal distribution of bacteria in the sample [14]. Flow cytometry data for this work is available via Flow Repository (https://flowrepository.org) (FR-FCM-ZY2B)."}},
  "note": "Values joined by “and” are separate entries in the source; they are usually repeats but may differ in a detail not shown here. Identical values can stand only once.",
  "data": [
    {"smiles": "CC(=O)O", "note": "[acetate]", "values": [
      {"measurement": "reduction of specific growth rate", "setting": "E. coli Frag1", "result": 50, "unit": "%"}
    ]},
    {"smiles": "Oc1ccccc1", "note": "[Phenol]", "values": [
      {"measurement": "survival on deletion of fadL", "setting": "BW25113 [1]", "result": "Deletion of fadL from BW25113 had no impact on survival"}
    ]},
    {"smiles": "CCCCCC", "note": "[Hexane]", "values": [
      {"measurement": "survival (assessed by OD) on deletion of fadL", "setting": "BW25113 [2]", "result": "Deletion of fadL from BW25113 increased survival, as assessed by OD"}
    ]},
    {"smiles": "CCCCCC(=O)O", "note": "[hexanoic acid]", "values": [
      {"measurement": "growth inhibition", "setting": "E. coli MG1655 [3]", "result": "completely inhibitory"}
    ]},
    {"smiles": "CCO", "note": "[ethanol]", "values": [
      {"measurement": "growth", "setting": "E. coli KO11; 35 g/L ethanol, engineered E. coli KO11", "result": "grows poorly"},
      {"measurement": "cells surviving challenge", "setting": "E. coli KO11; 100 g/L ethanol, KO11", "result": "less than 10%"}
    ]},
    {"smiles": "O=Cc1ccco1", "note": "[Furfural]", "values": [
      {"measurement": "concentration that inhibits growth completely", "setting": "E. coli LY01", "result": 3.5, "unit": "g/L"}
    ]},
    {"smiles": "CCCCCCCC(=O)O", "note": "[C8, octanoic acid]", "values": [
      {"measurement": "specific growth rate", "setting": "E. coli MG1655 [4]; 10 mM C8, strain Gen-empty", "result": 0.31, "unit": "h⁻¹"},
      {"measurement": "specific growth rate", "setting": "E. coli MG1655 [4]; 10 mM C8, strain Gen-fadL", "result": 0.33, "unit": "h⁻¹"},
      {"measurement": "specific growth rate", "setting": "E. coli MG1655 [4]; 10 mM C8, strain MG1655, MOPS+2% dextrose, 30° C., initial pH 7.0", "result": 0.31, "unit": "h⁻¹"},
      {"measurement": "specific growth rate", "setting": "E. coli MG1655 [4]; 10 mM C8, strain Pla-empty", "result": 0.31, "unit": "h⁻¹"},
      {"measurement": "specific growth rate", "setting": "E. coli MG1655 [4]; 10 mM C8, strain Pla-fadL", "result": "0.33 h⁻¹ and 0.32 h⁻¹"},
      {"measurement": "specific growth rate", "setting": "E. coli MG1655 [4]; 10 mM C8, strain ΔfadL", "result": 0.27, "unit": "h⁻¹"},
      {"measurement": "specific growth rate", "setting": "E. coli MG1655 [4]; 10 mM C8, strain ΔompF+Pla-fadL", "result": 0.36, "unit": "h⁻¹"},
      {"measurement": "specific growth rate, higher than control", "setting": "E. coli MG1655 [4]; 10 mM C8, ΔompF+Pla-fadL vs Pla-empty", "result": 18, "unit": "%"},
      {"measurement": "specific growth rate, higher than individual increased expression of fadL", "setting": "E. coli MG1655 [4]; 10 mM C8, ΔompF+Pla-fadL vs Pla-fadL", "result": 12, "unit": "%"},
      {"measurement": "specific growth rate, higher than individual deletion of ompF", "setting": "E. coli MG1655 [4]; 10 mM C8, ΔompF+Pla-fadL vs ΔompF+Pla-empty", "result": 10, "unit": "%"},
      {"measurement": "specific growth rate, higher than control", "setting": "E. coli MG1655 [4]; C8 challenge, Gen-fadL vs Gen-empty", "result": 7, "unit": "%"},
      {"measurement": "specific growth rate, higher than control", "setting": "E. coli MG1655 [4]; C8 challenge, Pla-fadL vs Pla-empty", "result": 8, "unit": "%"},
      {"measurement": "specific growth rate, lower than MG1655", "setting": "E. coli MG1655 [4]; C8 challenge, ΔfadL vs MG1655", "result": 12, "unit": "%"},
      {"measurement": "specific growth rate, higher than MG1655", "setting": "E. coli MG1655 [4]; C8 challenge, ΔompF vs MG1655", "result": 7, "unit": "%"},
      {"measurement": "magnitude of intracellular acidification on deletion of ompF", "setting": "E. coli BW25113", "result": "assessed via the maximum OD. Deletion of ompF decreased the magnitude"},
      {"measurement": "increase in membrane integrity", "setting": "E. coli MG1655 [5]; 10 mM C8, Gen-fadL vs Gen-empty", "result": 14, "unit": "%"},
      {"measurement": "increase in membrane integrity", "setting": "E. coli MG1655 [5]; 10 mM C8, Pla-fadL vs Pla-empty", "result": 25, "unit": "%"},
      {"measurement": "percentage of cells with intact membranes, lower than MG1655", "setting": "E. coli MG1655 [5]; 10 mM C8, ΔfadL vs MG1655", "result": 23, "unit": "%"},
      {"measurement": "increase in percentage of cells with intact membranes", "setting": "E. coli MG1655 [5]; 10 mM C8, ΔompF vs wild-type control strain", "result": 18, "unit": "%"},
      {"measurement": "increase in percentage of cells with intact membranes", "setting": "E. coli MG1655 [5]; C8 challenge, ΔompF+Pla-fadL vs Pla-empty", "result": 37, "unit": "%"},
      {"measurement": "growth inhibition", "setting": "E. coli MG1655 [3]", "result": "completely inhibitory"}
    ]}
  ]
}
